From patent publication USRE30241E, “Esters of 3-(hydroxy or hydroxymethyl)-4-hydroxyphenyl aminomethyl ketones” (Sterling Drug Inc., priority 1970, dated 1980)
Like-named read-outs stand apart in the source and are kept apart here.

Tests used:
Format in all cases: in vivo
[1] = test system: carbachol- or histamine-induced bronchoconstriction; assay: Bronchodilator Test Method I, anesthetized dog, intravenous activity; conditions: Canis lupus familiaris, read-out: Bronchodilatation; for inhibition in vivo at 0.00025 mg/kg: 0.25 mcg/kg i.v.; for inhibition in vivo at 0.001 mg/kg: 1 mcg/kg i.v.; for inhibition in vivo at 0.004 mg/kg: 4 mcg/kg i.v.; for inhibition in vivo at 0.0013 mg/kg: 1.3 mcg/kg i.v.; for inhibition in vivo at 0.0065 mg/kg: 6.5 mcg/kg i.v.; for inhibition in vivo at 0.0325 mg/kg: 32.5 mcg/kg i.v.; for inhibition in vivo at 0.005 mg/kg: 5 mcg/kg i.v.; for inhibition in vivo at 0.02 mg/kg: 20 mcg/kg i.v.; for inhibition in vivo at 0.08 mg/kg: 80 mcg/kg i.v.
Outline: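 Pentobarbital-anesthetized (30 mg/kg i.v.), open-chest, artificially ventilated dogs were given i.v. carbachol (4-6 µg/kg) or histamine diphosphate (35-45 µg/kg). Test compound was given i.v. mixed with, after, or 1-10 min before the constrictor.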

[2] = test system: carbachol- or histamine-induced bronchoconstriction; assay: Bronchodilator Test Method I, anesthetized dog, intraduodenal activity; conditions: Canis lupus familiaris, read-out: Bronchodilation; for inhibition in vivo at 0.025 mg/kg: 25 mcg/kg (salt) intraduodenal; for inhibition in vivo at 0.05 mg/kg: 50 mcg/kg (salt) intraduodenal
Outline: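 Pentobarbital-anesthetized (30 mg/kg i.v.) open-chest dogs of 9-18 kg, artificially ventilated; airway pressure recorded via tracheal cannula transducer. Test solution injected intraduodenally; from 5 min, i.v. carbachol (4-6 μg/kg) or histamine diphosphate (35-45 μg/kg) challenges every 30-60 min gauged degree and duration of bronchodilation.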

heart rate = assay: Cardiovascular studies: effect on the heart rate in the anesthetized dog
Method: The effect of a rapid intravenous injection on the heart rate the heart rate was conducted in anesthetized dogs under normal respiration. A few open-chest dogs were also tested. Increase in heart rate was measured by using an electrocardiograph attached to the dog. Readings were taken every 0.5-1 minute for the first 10 minutes and every 2-5 minutes thereafter until recovery. In some cases, several doses and more than one compound were tested alternately in the same dog. The blood pressure effect was simultaneously recorded.

## CC(C)(C)NCC(O)c1ccc(O)c(CO)c1 (stereo not drawn) [Ref. Cpd. III, 3-Hydroxymethyl-4-hydroxy-alpha-(tert-butylaminomethyl)benzyl alcohol, reference compound]
[1]; 5 min, 5 min
  inhibition in vivo at 0.00025 mg/kg: 18%
  inhibition in vivo at 0.001 mg/kg: 31%
  inhibition in vivo at 0.004 mg/kg: 65%
[1]; 0.5 h, 30 min
  inhibition in vivo at 0.00025 mg/kg: 0%
  inhibition in vivo at 0.001 mg/kg: 14%
  inhibition in vivo at 0.004 mg/kg: 24%
[1]; 1 h, 60 min
  inhibition in vivo at 0.001 mg/kg: 3%
  inhibition in vivo at 0.004 mg/kg: 18%
[1]; 2 h, 120 min
  inhibition in vivo at 0.004 mg/kg: 0%
[2]; 10 min, 10 min
  inhibition in vivo at 0.025 mg/kg: 45%
  inhibition in vivo at 0.05 mg/kg: 13%
[2]; 0.5 h, 30 min
  inhibition in vivo at 0.05 mg/kg: 42%
[2]; 1 h, 60 min
  inhibition in vivo at 0.025 mg/kg: 51%
  inhibition in vivo at 0.05 mg/kg: 56%
[2]; 2 h, 120 min
  inhibition in vivo at 0.025 mg/kg: 43%
  inhibition in vivo at 0.05 mg/kg: 71%
[2]; 3 h, 180 min
  inhibition in vivo at 0.025 mg/kg: 0%
  inhibition in vivo at 0.05 mg/kg: 53%
[2]; 4 h, 240 min
  inhibition in vivo at 0.05 mg/kg: 34%
[2]; 5 h, 300 min
  inhibition in vivo at 0.05 mg/kg: 6%
Heart rate; 0.25 mcg/kg (salt) i.v.
  Mean Maximal Increase in the Heart Rate: 9 Beats/Minute
Heart rate; 1 mcg/kg (salt) i.v.
  Mean Maximal Increase in the Heart Rate: 15 Beats/Minute
Heart rate; 4 mcg/kg (salt) i.v.
  Mean Maximal Increase in the Heart Rate: 34 Beats/Minute

## CC(=O)Oc1ccc(C(O)CNC(C)(C)C)cc1OC(=O)C12CC3CC(CC(C3)C1)C2 (stereo not drawn) [Example 148, 3-(1-adamantanecarbonyloxy)-4-acetoxy-alpha-(tert-butylaminomethyl)benzyl alcohol methanesulfonate]
[1]; 5 min, 5 min
  inhibition in vivo at 0.0013 mg/kg: 21%
  inhibition in vivo at 0.0065 mg/kg: 47%
  inhibition in vivo at 0.0325 mg/kg: 95%
[1]; 0.5 h, 30 min
  inhibition in vivo at 0.0013 mg/kg: 1%
  inhibition in vivo at 0.0065 mg/kg: 30%
  inhibition in vivo at 0.0325 mg/kg: 66%
[1]; 1 h, 60 min
  inhibition in vivo at 0.0013 mg/kg: 10%
  inhibition in vivo at 0.0065 mg/kg: 23%
  inhibition in vivo at 0.0325 mg/kg: 54%
[1]; 2 h, 120 min
  inhibition in vivo at 0.0013 mg/kg: 16%
  inhibition in vivo at 0.0065 mg/kg: 15%
  inhibition in vivo at 0.0325 mg/kg: 39%
[1]; 3 h, 180 min
  inhibition in vivo at 0.0065 mg/kg: 13%
  inhibition in vivo at 0.0325 mg/kg: 28%
[1]; 4 h, 240 min
  inhibition in vivo at 0.0325 mg/kg: 14%
Heart rate; 6.5 mcg/kg (salt) i.v.
  Mean Maximal Increase in the Heart Rate: 32 Beats/Minute
Heart rate; 32.5 mcg/kg (salt) i.v.
  Mean Maximal Increase in the Heart Rate: 58 Beats/Minute

## CC(C)(C)NCC(O)c1ccc(OC(=O)C(C)(C)C)c(COC(=O)C(C)(C)C)c1 (stereo not drawn) [Example 135, 3-(pivalyloxymethyl)-4-(pivaloxy)-alpha-(tert-butylaminomethyl)benzyl alcohol methanesulfonate]
[1]; 5 min, 5 min
  inhibition in vivo at 0.005 mg/kg: 18%
  inhibition in vivo at 0.02 mg/kg: 30%
  inhibition in vivo at 0.08 mg/kg: 38%
[1]; 0.5 h, 30 min
  inhibition in vivo at 0.005 mg/kg: 32%
  inhibition in vivo at 0.02 mg/kg: 49%
  inhibition in vivo at 0.08 mg/kg: 64%
[1]; 1 h, 60 min
  inhibition in vivo at 0.005 mg/kg: 36%
  inhibition in vivo at 0.02 mg/kg: 50%
  inhibition in vivo at 0.08 mg/kg: 62%
[1]; 2 h, 120 min
  inhibition in vivo at 0.005 mg/kg: 26%
  inhibition in vivo at 0.02 mg/kg: 56%
  inhibition in vivo at 0.08 mg/kg: 66%
[1]; 3 h, 180 min
  inhibition in vivo at 0.02 mg/kg: 50%
  inhibition in vivo at 0.08 mg/kg: 62%
[1]; 4 h, 240 min
  inhibition in vivo at 0.02 mg/kg: 45%
  inhibition in vivo at 0.08 mg/kg: 56%
[1]; 5 h, 300 min
  inhibition in vivo at 0.02 mg/kg: 36%
  inhibition in vivo at 0.08 mg/kg: 49%
[2]; 5 min, 5 min
  inhibition in vivo at 0.025 mg/kg: 18%
  inhibition in vivo at 0.05 mg/kg: 31%
[2]; 0.5 h, 30 min
  inhibition in vivo at 0.05 mg/kg: 56%
[2]; 1 h, 60 min
  inhibition in vivo at 0.025 mg/kg: 56%
  inhibition in vivo at 0.05 mg/kg: 74%
[2]; 2 h, 120 min
  inhibition in vivo at 0.025 mg/kg: 55%
  inhibition in vivo at 0.05 mg/kg: 73%
[2]; 3 h, 180 min
  inhibition in vivo at 0.025 mg/kg: 45%
  inhibition in vivo at 0.05 mg/kg: 64%
[2]; 4 h, 240 min
  inhibition in vivo at 0.025 mg/kg: 34%
  inhibition in vivo at 0.05 mg/kg: 51%
[2]; 5 h, 300 min
  inhibition in vivo at 0.025 mg/kg: 27%
  inhibition in vivo at 0.05 mg/kg: 37%
[2]; 6 h, after 6 hrs.
  inhibition in vivo at 0.05 mg/kg: 36%
Heart rate; 0.25 mcg/kg (salt) i.v.
  Mean Maximal Increase in the Heart Rate: 5 Beats/Minute
Heart rate; 1 mcg/kg (salt) i.v.
  Mean Maximal Increase in the Heart Rate: 10 Beats/Minute
Heart rate; 8 mcg/kg (salt) i.v.
  Mean Maximal Increase in the Heart Rate: 17 Beats/Minute
